The source of these data is patent publication US5912356A, “Antiviral nucleoside analogues containing a substituted benzimidazole base attached to a carbocyclic ring” (Glaxo Wellcome Inc., priority 1997, dated 1999).

The test system of experiment [1] is Human cytomegalovirus (HCMV). Put plainly: Anti-HCMV plaque reduction assay in MRC5 cell monolayers. It is filed as cell-based. Conditions: Human betaherpesvirus 5, 50% inhibitory concentration, MRC5 cells (human embryonic lung). The protocol:
Human cytomegalovirus (HCMV) is assayed in monolayers of MRC5 cells (human embryonic lung) in multiwell trays. Activity of compounds is determined in the plaque reduction assay, in which a cell monolayer is infected with a suspension of HCMV. A range of concentrations of the compound to be tested (of known molarity) is then incorporated into the carboxymethyl cellulose overlay. Plaque numbers of each concentration are expressed as percentage of the control and a dose-response curve is drawn. From this curve the 50% inhibitory concentration (IC50) is estimated.

Experiment [2] relates to HBV. Briefly: Anti-HBV assay: HBV DNA in supernatants of HBV-producing cells (HepG2 2.2.15, P5A), immunoaffinity capture, PCR and hybrid-capture detection. The class given is cell-based, hepatitis B virus (HBV). The following applies: 50 percent decrease in HBV DNA, HepG2 2.2.15, P5A cell line, two values per compound, ganciclovir (control): average of 10 values. The protocol: Anti-HBV activity of compounds of formula (I) and (I-1) was determined with a high-capacity assay for assessing efficacy. Supernatants from growing HBV-producing cells (HepG2 2.2.15, P5A cell line) in 96-well plates are applied to microtiter plate wells which have been coated with a specific monoclonal antibody to HBV surface antigen (HBsAg). Virus particles present in the supernatants bind to the antibody and remain immobilized while other debris is removed by washing. These virus particles are then denatured to release HBV DNA strands which are subsequently amplified by the polymerase chain reaction and detected with a calorimetric hybrid-capture assay. Quantitation is achieved through fitting of a standard curve to dilutions of a cell supernatant with known HBV DNA content. By comparing HBV DNA levels of untreated control cell supernatants with supernatants containing a compound of formula (I) or (I-1), a measure of anti-HBV effectiveness is obtained.
b. Immunoaffinity Capture of HBV:
HBV producer cells, 2500 cells/well, were seeded in 96-well culture dishes in RPMI/10% fetal bovine serum/2 mM glutamine (RPMI/10/2:). Media were replenished on days 1, 3, 5, and 7 with dilutions of a compound of formula (1) or (I-1) in RPMI/10/2 to a final volume of 150 uL. Fifty uL of mouse monoclonal anti-HBsAG antibody (10 ug/mL in PBS) were added to each well of a round-bottom microtiter plate. After incubation overnight at 4° C., the solutions were aspirated and replaced with 100 uL of 0.1% BSA in PBS. Samples were incubated for 2 hours at 37° C. and washed three times with PB S/0/01% Tween-20 (PBS/T) using a Nunc Washer. Ten uL of 0.035% Tween 20 in PBS were then added to all wells by Pro/Pette. Cell supernatants (25 uL) containing extracellular virion DNA were transferred into wells by Pro/Pette; the final Tween concentration is 0.01%. Twenty-five uL HBV standard media dilutions in RPMI/10/2 were added to 2 rows of wells to serve as an internal standard curve for quantitation, and the plates were sealed and incubated at 4° C. overnight. Samples were washed 5 times with PBS/T and 2 times with PBS, aspirating the last wash. Next, 25 uL of 0.09N NaOH/0.01% NP40 were added to each well by Pro/Pette, and the sample wells were sealed and incubated at 37° C. for 60 minutes. Samples were then neutralized with 25 uL of 0.09N HCl/100 mM tris (pH 8.3).
c. Polymerase Chain Reaction (PCR):
Polymerase chain reaction (Saiki, R. K. et al., Science, 239 (4839) 487-91 (1988)) was carried out on 5 uL samples, using a Perkin Elmer PCR kit. PCR is performed in "MicroAmp tubes" in a final volume of 25 uL. Primers were chosen from conserved regions in the HBV genome, as determined by alignment of several sequences. One primer is biotinylated at the 5-prime end to facilitate hybrid-capture detection of the PCR products. All primers were purchased from Synthecell Corp., Rockville, Md. 20850.
d. Hybrid-Capture Detection of PCR Products:
PCR products were detected with horse radish peroxidase-labeled oligonucleotide probes (Synthecell Corp., Rockville, Md. 20850), which hybridize to biotinylated strands of denatured PCR products directly in streptavidin-coated microtiter plate wells, using essentially the method of Holodiniy, M. et al., BioTechniques, 12 (1) 37-39 (1992). Modifications included the use of […] PCR reaction volumes and sodium hydroxide denaturation instead of heat. Simultaneous binding of the biotin moiety to the plate-bound streptavidin during the hybridization serves to "capture" the hybrids. Unbound labeled probes were washed away before calorimetric determination of the bound (hybridized) horse radish peroxidase. Quantities of HBV DNA present in the original samples were calculated by comparison with standards. These values were then compared to those from untreated cell cultures to determine the extent of anti-HBV activity.
IC50 (the median inhibitory concentration) is the amount of compound which produces a 50 percent decrease in HBV DNA. […]

Setting [3] is: Hepatitis B virus, HepG2 2.2.15, approximate IC50.

On to `OC[C@@H]1C[C@H](n2c(Br)nc3cc(Cl)c(Cl)cc32)[C@@H](O)[C@H]1O` (relative stereo) [Ex. 4, (±)-(1R*, 2S*, 3S*, 5S*)-5-(2-Bromo-5,6-dichloro-1H-benzimidazol-1yl)-3-(hydroxymethyl)-1,2-cyclopentanediol], for which the midpoint of inhibition in experiment [1], the IC50, lay at 1900 nM.

Take `OC[C@@H]1C[C@H](n2c(NC3CC3)nc3cc(Cl)c(Cl)cc32)[C@@H](O)[C@H]1O` [Ex. 32, (1R, 2S, 3S, 5S)-5-[5,6-Dichloro-2-(cyclopropylamino)-1H-benzimidazol-1-yl]-3-(hydroxymethyl)-1,2-cyclopentanediol]: the IC50 in experiment [2] (setting [3]) is 1300 nM; in experiment [2] (approximate IC50), 790 nM.

Take `CC(C)Nc1nc2cc(Cl)c(Cl)cc2n1[C@H]1C[C@@H](CO)[C@H](O)[C@@H]1O` [Ex. 33, (1R, 2S, 3S, 5S)-5-[5,6-Dichloro-2-(isopropylamino)-1H-benzimidazol-1-yl]-3-(hydroxymethyl)-1,2-cyclopentanediol]: the IC50 in experiment [2] (setting [3]) was determined as 440 nM; in experiment [2] (approximate IC50), 500 nM.

With `CC(C)(C)Nc1nc2cc(Cl)c(Cl)cc2n1[C@H]1C[C@@H](CO)[C@H](O)[C@@H]1O` [Ex. 40, (1R, 2S, 3S, 5S)-5-[2-(tert-Butylamino)-5,6-dichloro-1H-benzimidazol-1-yl]-3-(hydroxymethyl)-1,2-cyclopentanediol], the IC50 in experiment [2] (approximate IC50) was determined as 1400 nM. This counts as single-digit micromolar.

`Nc1nc(O)c2ncn(COC(CO)CO)c2n1` [ganciclovir, reference compound] had an IC50 in experiment [2] (setting [3]) of 1100 nM.

For orientation: IC50 means the midpoint of a concentration-inhibition curve. Low values mean greater potency, high ones weaker potency.
